The results in this text go back to publication PMC7356228, “Alvaxanthone, a Thymidylate Synthase Inhibitor with Nematocidal and Tumoricidal Activities” (Molecules, 2020).

Experiment [1] has as its system caspases 3/7 in BJ, U-118 MG, and SCC-15 cells. As to the kind of experiment: Apo-ONE Homogenous Caspase-3/7 Assay. The settings on record: 48 h, 5–40 µM, span over the three cell lines. The format is cell-based, human. As to the method: (§1) Figure 4 Changes of caspase-3/7 activities and intracellular ATP level in BJ, U-118 MG, and SCC-15 cells after 48-h incubation with 5–40 µM alvaxanthone or rheediaxanthone B. Median results are presented of three independent experiments, each performed in triplicate. The whiskers are lower (25%) and upper (75%) quartile ranges.
The Apo-ONE® Homogenous Caspase-3/7 Assay provides a measurement of the executioner caspases 3/7 activation, characteristic for apoptosis induced via both the intrinsic and extrinsic pathway. It was used to determine apoptosis induction in cells by alvaxanthone and rheediaxanthone B. In each of the three cell lines, compared to the respective non-treated control, treatment with each of the two compounds for 48 h led to a significant activation of the caspases 3/7 (by 2- to 10-fold for alvaxanthone and 8- to 18-fold for rheediaxanthone B), the effect being stronger in cancer than normal cells (Figure 4).
(§2) Influence of selected compounds on cells was tested by performing the cytotoxicity (NR and XTT) assays, proliferation assay, cell adhesion assay, cell migration assay, determination of intracellular ATP level, and apoptosis assay as previously reported.

The next experiment deals with T1, CeTS (Caenorhabditis elegans, UniProt Q9Y052).
T1 sequence (Q9Y052 1-315): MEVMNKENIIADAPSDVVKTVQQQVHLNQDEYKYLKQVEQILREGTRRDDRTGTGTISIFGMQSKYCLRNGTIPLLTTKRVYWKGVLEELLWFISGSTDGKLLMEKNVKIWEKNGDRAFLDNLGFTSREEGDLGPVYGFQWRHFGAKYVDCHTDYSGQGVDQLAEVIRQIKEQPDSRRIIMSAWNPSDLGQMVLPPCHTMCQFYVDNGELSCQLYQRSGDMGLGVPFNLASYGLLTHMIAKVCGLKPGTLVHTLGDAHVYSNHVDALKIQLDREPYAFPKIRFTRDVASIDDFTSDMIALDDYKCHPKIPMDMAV
The experiment is described as follows: Inhibition of TS-catalyzed reaction (tritium release from [5-3H]dUMP). In kind it is biochemical, C. elegans. An excerpt: (§3) The recombinant human, rat, mouse, T. spiralis and C. elegans TS proteins were produced, purified and separated into phosphorylated and non-phosphorylated fraction, as previously described. TS activity was monitored, following tritium release from [5-^3H]dUMP, and its inhibition studied as earlier reported.

Experiment [2] concerns SCC-15 human squamous carcinoma cells. As to the kind of experiment: Cytotoxicity, neutral red uptake (NR) assay. In kind it is cell-based. The settings on record: Homo sapiens, SCC-15, neutral red assay, read-out: IC50. As to the method: (§4) Biological effect of alvaxanthone and rheediaxanthone B on normal (BJ) and cancer cells (U-118 MG and SCC-15) was estimated using two viability assays, the neutral red uptake (NR) and tetrazolium salts reduction (XTT) assays.
(§5) Human glioblastoma cells U-118 MG (ATCC® HTB-15), human squamous carcinoma cells SCC-15 (ATCC® CRL-1623), and normal human skin fibroblasts (ATCC® CRL-2522) were grown, their morphology checked, and number and viability estimated as earlier presented.
as §2

In experiment [3] the test system is U-118 MG human glioblastoma cells. The experiment is described as follows: Cytotoxicity, neutral red uptake (NR) assay. In kind it is cell-based. The settings on record: neutral red assay, U-118 MG, read-out: IC50. As to the method:
as §4, §5, §2

Experiment [4] deals with BJ normal human skin fibroblasts. The experiment is described as follows: Cytotoxicity, neutral red uptake (NR) assay. In kind it is cell-based. The settings on record: Homo sapiens, Skin fibroblast; neutral red assay, BJ; read-out: IC50. Here is the method: as §4, §5, §2
The next experiment relates to C. elegans. As to the kind of experiment: Toxicity to C. elegans (population growth). The settings on record: Caenorhabditis elegans, read-out: LC50 (reduction of growth of the nematode population). Here is the method: C. elegans was maintained as previously described. The effect of the compounds studied on C. elegans population growth was determined as earlier presented.

Experiment [5] concerns SCC-15 cells. The experiment is described as follows: Cell adhesion, crystal violet assay. The settings on record: 48-h treatment. The format is cell-based, human. Here is the method: (§6) Cancer metastasis, resulting from an impairment of adhesion between cancer cells and the extracellular matrix may cause cell migration from a primary tumor into distant parts of an organism. The cristal violet assay was used to examine alvaxanthone and rheediaxanthone B ability to influence cellular adhesion.
(§7) Figure 3 Influence of alvaxanthone or rheediaxanthone B on BJ, U-118 MG, and SCC-15 cells adhesion after 48-h treatment. The crystal violet assay was used. Results are medians of triplicate assays of three independent experiments expressed as a % of non-treated controls. The whiskers are lower (25%) and upper (75%) quartile ranges. * p ≤ 0.05, Kruskal–Wallis test (against non-treated control).
as §2

In experiment [6] the test system is U-118 MG cells. As to the kind of experiment: Cell adhesion, crystal violet assay. The format is cell-based, human. The settings on record: 48-h treatment. As to the method:
as §6, §7, §2

The test system of experiment [7] is BJ cells. As to the kind of experiment: Cell adhesion, crystal violet assay. In kind it is cell-based, human. To be noted: 48-h treatment. Here is the method: as §6, §7, §2
For experiment [8], the system named is BJ, U-118 MG and SCC-15 cells. As to the kind of experiment: NR assay, summary over the three cell lines. The settings on record: Homo sapiens, 48 h, span over BJ. The format is cell-based, human. Here is the method:
as §4
Thus, alvaxanthone may be damaging mitochondria and impairing their metabolism exerting one of possible mechanisms active in destroying cancer cells. Changes of cell morphology in dependence on increasing alvaxanthone and rheediaxanthone B concentration were also recorded. While the glioma and squamous carcinoma cells formed clusters, lost their adhesion, shrank, and accumulated less NR dye, normal fibroblasts preserved rather normal shapes but the amount of the neutral red dye and confluence of cells decreased. In addition, a lower number of BJ cells was detected (Figure 1B).
as §2

Another experiment has as its target T2, mTS (Mus musculus, UniProt P07607).
T2 construct: made in house
The experiment is described as follows: Inhibition of TS-catalyzed reaction (tritium release from [5-3H]dUMP). The format is biochemical.
Description: as §3

In a further experiment the target is T3, hTS (Homo sapiens, UniProt P04818).
T3 construct: made in house
T3 sequence (P04818 whole entry): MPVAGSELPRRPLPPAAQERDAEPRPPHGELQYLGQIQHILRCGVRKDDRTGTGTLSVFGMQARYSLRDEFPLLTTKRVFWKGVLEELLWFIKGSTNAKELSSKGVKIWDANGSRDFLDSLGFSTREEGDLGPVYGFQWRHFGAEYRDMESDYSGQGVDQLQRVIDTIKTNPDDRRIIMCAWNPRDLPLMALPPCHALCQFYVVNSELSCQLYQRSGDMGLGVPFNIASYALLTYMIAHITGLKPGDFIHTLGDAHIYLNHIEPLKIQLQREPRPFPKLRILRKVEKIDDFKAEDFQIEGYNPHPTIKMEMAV
Described as above. The format is biochemical.
Description: as §3

Another experiment deals with TsTS (Trichinella spiralis, UniProt Q9NDD3). Described as above. The format is biochemical, T. spiralis.
TsTS, sequence (Q9NDD3 entry or part of it): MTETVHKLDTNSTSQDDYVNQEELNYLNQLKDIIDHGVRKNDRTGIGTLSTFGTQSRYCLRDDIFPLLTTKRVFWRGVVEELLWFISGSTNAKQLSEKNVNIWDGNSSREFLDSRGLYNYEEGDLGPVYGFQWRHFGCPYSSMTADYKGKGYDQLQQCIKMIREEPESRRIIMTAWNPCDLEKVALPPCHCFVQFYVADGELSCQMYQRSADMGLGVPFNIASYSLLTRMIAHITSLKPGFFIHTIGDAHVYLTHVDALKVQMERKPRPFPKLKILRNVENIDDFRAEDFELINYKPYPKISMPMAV
Description: as §3

For experiment [9], the system named is SCC-15 cells. The experiment is described as follows: Intracellular ATP level (CellTiterGlo). The format is cell-based, human. The settings on record: 48-h incubation, squamous carcinoma cells. Here is the method: as §1
(§8) On the other hand, rheediaxanthone B caused a reduction of ATP level down to around 30% in glioma cells and fibroblasts, and to 20% in squamous carcinoma cells (Figure 4). In general, with increasing Caspase-3/7 activity the ATP level was decreasing, in accord with the results of Reference.
as §2
Background: In ATP-based viability assays light output follows the ATP content of the culture.

Experiment [10] has as its system U-118 MG cells. The experiment is described as follows: Intracellular ATP level (CellTiterGlo). In kind it is cell-based, human. The settings on record: 48-h incubation, glioma cells. Here is the method: as §1, §8, §2
Experiment [11] relates to BJ cells. The experiment is described as follows: Intracellular ATP level (CellTiterGlo). The format is cell-based, human. To be noted: 48-h incubation, fibroblasts. Here is the method: as §1, §8, §2
[12] abbreviates: 20 µM dUMP and 50 µM meTHF, experiment not repeated, read-out: IC50.
Setting [13] is: compound 10 µM, 20 µM dUMP, 50 µM meTHF.
The mark [14] stands for this setting: compound 100 µM, 20 µM dUMP, 50 µM meTHF, read-out: % Remaining Activity.

The structures appear in SMILES notation. Some results are limits rather than exact numbers.

T2 sequence (P07607 whole entry): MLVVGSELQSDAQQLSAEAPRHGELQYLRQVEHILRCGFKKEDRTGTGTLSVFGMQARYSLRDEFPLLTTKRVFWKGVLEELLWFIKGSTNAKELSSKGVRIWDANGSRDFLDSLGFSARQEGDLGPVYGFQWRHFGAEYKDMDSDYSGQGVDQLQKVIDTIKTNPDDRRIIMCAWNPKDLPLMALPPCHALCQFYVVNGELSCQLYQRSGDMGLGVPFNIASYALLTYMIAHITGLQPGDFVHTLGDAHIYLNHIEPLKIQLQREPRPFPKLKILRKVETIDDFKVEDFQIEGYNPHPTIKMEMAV

`C=CC(C)(C)c1c2c(c3oc4c(O)c(O)ccc4c(=O)c3c1O)C(C)(C)C(C)O2` (stereo not drawn) [Rheediaxanthone B (17), Rheediaxanthone B]: the “activation of the caspases 3/7 compared to non-treated control” value in experiment [1] is reported as 8- to 18 fold. Also, the half-inhibitory concentration (IC50) on CeTS (setting [12]) was 11.4 µM; in experiment [2] it was 9.2 µM; in experiment [3], 4.75 µM; in [4], 5.5 µM; in experiment [8], below 10 µM; at mTS (setting [12]), 14.3 µM. For the same molecule, the half-inhibitory concentration (IC50) on hTS (20 µM dUMP and 50 µM meTHF, mean ± S.E.M. (N=3) for alvaxanthone, rheediaxanthone B not repeated, read-out: IC50) worked out at 17.9 µM; against TsTS (IC50, 20 µM dUMP and 50 µM meTHF, mean ± S.E.M. (N=3) for alvaxanthone, rheediaxanthone B not repeated), 50.8 µM. Moreover, the remaining activity at 10 µM on CeTS (setting [13]) was determined as 59%; at mTS (setting [13]), 56%; on hTS (setting [13]), 59%; on TsTS (setting [13]) it was 68%. Also, the remaining activity at 100 µM at CeTS (setting [14]) amounted to 14%; on mTS (setting [14]), 2%; at hTS (setting [14]) it was 5%; on TsTS (compound 100 µM, 20 µM dUMP, 50 µM meTHF) it was 40%. The LC50 in the experiment on C. elegans was 16 ± 10.2 µM. The “concentration at which reduction of adhesion is significant/apparent” value with SCC-15 cells [5] was determined as 5 µM; in the experiment on U-118 MG cells [6], 10 µM; with BJ cells [7] it was 5 µM. The results for the “ATP level reduced down to” value with SCC-15 cells [9], in the experiment with U-118 MG cells [10] and with BJ cells [11] were 20%, “around 30%” and “around 30%”, respectively.

One may read the IC50 as the midpoint of a concentration-inhibition curve. As a reminder, the remaining activity is the share of the control activity or signal that is left under treatment. Usually LC50 stands for the concentration that kills 50% of the test population.
